Measured values published in ChEMBL document CHEMBL4725268, “Anticonvulsant and analgesic in neuropathic pain activity in a group of new aminoalkanol derivatives” (Bioorg Med Chem Lett, 2020).
Activity calls are given as the source filed them.

How the values were obtained:
[1] = Toxicity in mouse assessed as lethality at 50 mg/kg, ip; assay type: organism-based; conditions: in vivo
[2] = Genotoxicity in Salmonella typhimurium TA100 assessed as mutagenic index at 75 ug by AMES test; assay type: toxicity, Salmonella enterica subsp. enterica serovar Typhimurium; conditions: in vivo; dose 75 µg
[3] = Genotoxicity in Salmonella typhimurium TA98 assessed as mutagenic index at 200 ug by AMES test; assay type: toxicity, Salmonella enterica subsp. enterica serovar Typhimurium; conditions: in vivo; dose 200 µg
[4] = Genotoxicity in Salmonella typhimurium TA98 assessed as number of revertant at 500 ug by AMES test (reference value: 8 to 8.3); assay type: toxicity, Salmonella enterica subsp. enterica serovar Typhimurium; conditions: in vivo; dose 500 µg
[5] = test system: Mus musculus; test: Antiallodynic activity in mouse model of OXA-induced peripheral neuropathy assessed as mean paw withdrawal threshold at 18 mg/kg, ip administered after 3 hrs of OXA stimulation and measured after 1 hr by Von-frey method (reference value: 3.144 +/- 0.169 g); assay type: functional
[6] = test system: Mus musculus; test: Anticonvulsant activity in ip dosed mouse assessed as protection against current-induced seizure by maximal electroshock seizure test; assay type: functional
[7] = test system: Mus musculus; test: Antiallodynic activity in mouse model of OXA-induced peripheral neuropathy assessed as mean paw withdrawal threshold at 18 mg/kg, ip administered after 7 days of OXA stimulation and measured after 1 hr by Von-frey method (reference value: 3.192 +/- 0.181 g); assay type: functional
[8] = Genotoxicity in Salmonella typhimurium TA98 assessed as mutagenic index at 500 ug by AMES test; assay type: toxicity, Salmonella enterica subsp. enterica serovar Typhimurium; conditions: in vivo; dose 500 µg
[9] = test system: Mus musculus; test: Antiallodynic activity in mouse model of OXA-induced peripheral neuropathy assessed as mean latency time to nocifensive response at 18 mg/kg, ip administered after 3 hrs of OXA stimulation and measured after 1 hr by cold plate method (reference value: 59.76 +/- 0.16 sec); assay type: functional
[10] = Genotoxicity in Salmonella typhimurium TA100 assessed as mutagenic index at 200 ug by AMES test; assay type: toxicity, Salmonella enterica subsp. enterica serovar Typhimurium; conditions: in vivo; dose 200 µg
[11] = Genotoxicity in Salmonella typhimurium TA100 assessed as number of revertant at 200 ug by AMES test (reference value: 64.3 to 130.7); assay type: toxicity, Salmonella enterica subsp. enterica serovar Typhimurium; conditions: in vivo; dose 200 µg
[12] = in vitro; conditions: mouse, microsomes
Description: Metabolic stability in mouse microsome assessed as intrinsic clearance

[13] = Protection index, ratio of TD50 for toxicity in ip dosed mouse to ED50 for anticonvulsant activity in ip dosed mouse; assay type: organism-based; conditions: in vivo, read-out: PI
[14] = Genotoxicity in Salmonella typhimurium TA100 assessed as number of revertant at 75 ug by AMES test (reference value: 64.3 to 130.7); assay type: toxicity, Salmonella enterica subsp. enterica serovar Typhimurium; conditions: in vivo; dose 75 µg
[15] = Genotoxicity in Salmonella typhimurium TA98 assessed as number of revertant at 75 ug by AMES test (reference value: 8 to 8.3); assay type: toxicity, Salmonella enterica subsp. enterica serovar Typhimurium; conditions: in vivo; dose 75 µg
[16] = Toxicity in ip dosed mouse assessed as motor impairment by rotarod test; assay type: organism-based; conditions: in vivo
[17] = Genotoxicity in Salmonella typhimurium TA98 assessed as number of revertant at 10 ug by AMES test (reference value: 8 to 8.3); assay type: toxicity, Salmonella enterica subsp. enterica serovar Typhimurium; conditions: in vivo; dose 10 µg
[18] = Drug metabolism in mouse microsome assessed as formation of monohydroxylated metabolite; assay type: ADME; conditions: microsomes
[19] = Genotoxicity in Salmonella typhimurium TA98 assessed as mutagenic index at 75 ug by AMES test; assay type: toxicity, Salmonella enterica subsp. enterica serovar Typhimurium; conditions: in vivo; dose 75 µg
[20] = Antioxidant activity assessed as DPPH radical scavenging activity at 125 to 1000 uM by microplate method; assay type: functional; conditions: dose microM 125-1000
[21] = Genotoxicity in Salmonella typhimurium TA100 assessed as mutagenic index at 750 ug by AMES test; assay type: toxicity, Salmonella enterica subsp. enterica serovar Typhimurium; conditions: in vivo; dose 750 µg
[22] = Genotoxicity in Salmonella typhimurium TA100 assessed as mutagenic index at 10 ug by AMES test; assay type: toxicity, Salmonella enterica subsp. enterica serovar Typhimurium; conditions: in vivo; dose 10 µg
[23] = molecular target: T1, 5-hydroxytryptamine receptor 1A (Homo sapiens, UniProt P08908); test: Binding affinity to 5-HT1A (unknown origin)
T1 sequence (P08908 whole entry): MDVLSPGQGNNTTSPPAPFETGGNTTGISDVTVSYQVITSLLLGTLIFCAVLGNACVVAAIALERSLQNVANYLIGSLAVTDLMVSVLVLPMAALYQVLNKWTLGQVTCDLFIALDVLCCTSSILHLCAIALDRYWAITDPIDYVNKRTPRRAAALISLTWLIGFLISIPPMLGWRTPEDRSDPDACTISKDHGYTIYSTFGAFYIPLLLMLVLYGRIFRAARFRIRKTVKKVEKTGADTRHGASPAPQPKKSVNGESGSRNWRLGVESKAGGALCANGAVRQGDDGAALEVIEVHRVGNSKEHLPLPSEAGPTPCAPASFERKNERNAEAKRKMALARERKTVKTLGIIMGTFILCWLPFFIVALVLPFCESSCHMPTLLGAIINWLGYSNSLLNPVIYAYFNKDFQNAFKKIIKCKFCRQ

[24] = Genotoxicity in Salmonella typhimurium TA100 assessed as number of revertant at 10 ug by AMES test (reference value: 64.3 to 130.7); assay type: toxicity, Salmonella enterica subsp. enterica serovar Typhimurium; conditions: in vivo; dose 10 µg
[25] = Genotoxicity in Salmonella typhimurium TA100 assessed as number of revertant at 750 ug by AMES test (reference value: 64.3 to 130.7); assay type: toxicity, Salmonella enterica subsp. enterica serovar Typhimurium; conditions: in vivo; dose 750 µg
[26] = test system: Mus musculus; test: Antiallodynic activity in mouse model of OXA-induced peripheral neuropathy assessed as mean latency time to nocifensive response at 18 mg/kg, ip administered after 7 days of OXA stimulation and measured after 1 hr by cold plate method (reference value: 57.64 +/- 1.267 sec); assay type: functional
[27] = Genotoxicity in Salmonella typhimurium TA98 assessed as mutagenic index at 10 ug by AMES test; assay type: toxicity, Salmonella enterica subsp. enterica serovar Typhimurium; conditions: in vivo; dose 10 µg
[28] = in vitro; conditions: mouse, microsomes; remark: listed apart in the source
Description: Metabolic stability in mouse microsome assessed as half life

[29] = Genotoxicity in Salmonella typhimurium TA98 assessed as number of revertant at 200 ug by AMES test (reference value: 8 to 8.3); assay type: toxicity, Salmonella enterica subsp. enterica serovar Typhimurium; conditions: in vivo; dose 200 µg
[30] = Genotoxicity in Salmonella typhimurium TA98 assessed as mutagenic index at 750 ug by AMES test; assay type: toxicity, Salmonella enterica subsp. enterica serovar Typhimurium; conditions: in vivo; dose 750 µg
[31] = Genotoxicity in Salmonella typhimurium TA98 assessed as number of revertant at 750 ug by AMES test (reference value: 8 to 8.3); assay type: toxicity, Salmonella enterica subsp. enterica serovar Typhimurium; conditions: in vivo; dose 750 µg
[32] = molecular target: T2, 5-hydroxytryptamine receptor 1A (Homo sapiens) (UniProt P08908); test: Binding affinity to 5-HT1A (unknown origin) at 10^-5 M; conditions: dose 1.0 10^-5M
T2 sequence (whole entry): T1 sequence (P08908 whole entry)

[33] = Genotoxicity in Salmonella typhimurium TA100 assessed as number of revertant at 500 ug by AMES test (reference value: 64.3 to 130.7); assay type: toxicity, Salmonella enterica subsp. enterica serovar Typhimurium; conditions: in vivo; dose 500 µg
[34] = Genotoxicity in Salmonella typhimurium TA100 assessed as mutagenic index at 500 ug by AMES test; assay type: toxicity, Salmonella enterica subsp. enterica serovar Typhimurium; conditions: in vivo; dose 500 µg
[35] = test system: Escherichia coli; test: Antimicrobial activity against Escherichia coli ATCC 35218 assessed as reduction in bacterial growth at 0.195 to 100 ug/ml by serial dilution method; assay type: organism-based; conditions: in vivo, dose 0.195-100 µg/ml
[36] = Toxicity in mouse assessed as lethality at 70 mg/kg, ip; assay type: organism-based; conditions: in vivo
[37] = test system: Staphylococcus aureus; test: Antimicrobial activity against clinical strain Staphylococcus aureus assessed as reduction in bacterial growth at 0.195 to 100 ug/ml by serial dilution method; assay type: organism-based; conditions: in vivo, dose 0.195-100 µg/ml
[38] = test system: Escherichia coli; test: Antimicrobial activity against Escherichia coli ATCC 25922 assessed as reduction in bacterial growth at 0.195 to 100 ug/ml by serial dilution method; assay type: organism-based; conditions: in vivo, dose 0.195-100 µg/ml
[39] = test system: Bacteroides fragilis; test: Antimicrobial activity against Bacteroides fragilis ATCC 25285 assessed as reduction in bacterial growth at 0.195 to 100 ug/ml by disk diffusion method; assay type: organism-based; conditions: in vivo, dose 0.195-100 µg/ml
[40] = test system: Enterococcus faecalis; test: Antimicrobial activity against Enterococcus faecalis ATCC 29212 assessed as reduction in bacterial growth at 0.195 to 100 ug/ml by serial dilution method; assay type: organism-based; conditions: in vivo, dose 0.195-100 µg/ml
[41] = test system: Salmonella enterica; test: Antimicrobial activity against Salmonella enterica ATCC 51957 assessed as reduction in bacterial growth at 0.195 to 100 ug/ml by serial dilution method; assay type: organism-based; conditions: in vivo, dose 0.195-100 µg/ml
[42] = Antimicrobial activity against clinical strain Bifidobacterium assessed as reduction in bacterial growth at 0.195 to 100 ug/ml by disk diffusion method; conditions: dose 0.195-100 µg/ml
[43] = test system: Clostridioides difficile; test: Antimicrobial activity against clinical strain Clostridium difficile assessed as reduction in bacterial growth at 0.195 to 100 ug/ml by disk diffusion method; assay type: organism-based; conditions: in vivo, dose 0.195-100 µg/ml
[44] = test system: Staphylococcus aureus; test: Antimicrobial activity against Staphylococcus aureus ATCC 25923 assessed as reduction in bacterial growth at 0.195 to 100 ug/ml by serial dilution method; assay type: organism-based; conditions: in vivo, dose 0.195-100 µg/ml
[45] = test system: Hoylesella loescheii; test: Antimicrobial activity against Prevotella loescheii ATCC 15930 assessed as reduction in bacterial growth at 0.195 to 100 ug/ml by disk diffusion method; assay type: organism-based, DSM 19665 = JCM 12249 = ATCC 15930; conditions: in vivo, dose 0.195-100 µg/ml
[46] = Toxicity in mouse assessed as lethality at 30 mg/kg, ip; assay type: organism-based; conditions: in vivo
[47] = Toxicity in mouse assessed as lethality at 20 mg/kg, ip; assay type: organism-based; conditions: in vivo
[48] = organism: Mus musculus; test: animal or person; conditions: Swiss, ip
Description: Anticonvulsant activity in ip dosed Swiss mouse assessed as protection against current-induced seizure by maximal electroshock seizure test

[49] = test system: Mus musculus; test: Anticonvulsant activity in ip dosed albino mouse assessed as protection against 50 mA current-induced seizure by maximal electroshock seizure test; assay type: functional

Row | SMILES | Activity [1] | Activity_index [2] | Activity_index [3] | Activity [4] | ED50 [6] | Activity_index [8] | Activity_index [10] | Activity [11] | microsomal CLint [12] | selectivity ratio [13] | Activity [14] | Activity [15] | TD50 [16] | Activity [17] | Drug metabolism [18] | Activity_index [19] | Activity_index [21] | Activity_index [22] | Ki [23] | Activity [24] | further results
1 | Cc1cc(C)c(C)c(OCCOCCN[C@H]2CCCC[C@@H]2O)c1.Cl (racemic) | Non-Toxic | 1.1 | 1.4 | 9 | 18.2 mg/kg | 1.1 | 1 | 70.5 | 93 µL/min/mg | 2.91 | 80.7 | 8 | 54.2 mg/kg | 7 | Metabolite_Detected | 1 | 0.4 | 1.2 | 1.2 µM | 86 | Activity [5]: 2.09 g; Activity [7]: 1.907 g; Time [9]: 20.92 s; Activity [20]: inactive; Activity [25]: 56; Time [26]: 8.86 s; Activity_index [27]: 0.9; half-life [28]: 37.2 min; Activity [29]: 11
2 | Cc1ccc(OCCCN2CCCC(O)C2)c(C)c1 (racemic) | Non-Toxic | 1 | 1.2 | 4.7 | 34.8 mg/kg | 1 | 1.2 | 88.5 | 60.5 µL/min/mg | 3.09 | 69.5 | 8 | 108 mg/kg | 6.3 | Metabolite_Detected | 0.8 | 53.4 | 1.2 |  | 89.5 | Activity_index [30]: 1; Activity [31]: 3.3; Activity [32]: inactive; Activity [33]: 81; Activity_index [34]: 1.1; Activity [25]: 3869.5; Activity_index [27]: 0.4; half-life [28]: 28.6 min; Activity [29]: 6.7
3 | Cc1ccc(OCCCCN[C@H](C)CO)c(C)c1 | Non-Toxic |  |  |  | 52.5 mg/kg |  |  |  |  | 2.59 |  |  | 136 mg/kg |  |  |  |  |  |  |  | Activity [35]: Non-Toxic; Activity [36]: Non-Toxic; Activity [37]: Non-Toxic; Activity [38]: Non-Toxic; Activity [39]: Non-Toxic; Activity [32]: inactive; Activity [40]: Non-Toxic; Activity [41]: Non-Toxic; Activity [42]: Non-Toxic; Activity [43]: Non-Toxic; Activity [44]: Non-Toxic; Activity [45]: Non-Toxic
4 | Cc1ccc(OCCOCCN[C@H](C)CO)c(C)c1 | Non-Toxic |  |  |  | 27.4 mg/kg |  |  |  |  | 3.4 |  |  | 93.2 mg/kg |  |  |  |  |  | 4.8 µM |  | Activity [46]: Non-Toxic; Activity [35]: Non-Toxic; Activity [37]: Non-Toxic; Activity [47]: Non-Toxic; Activity [38]: Non-Toxic; Activity [39]: Non-Toxic; Activity [40]: Non-Toxic; Activity [41]: Non-Toxic; Activity [42]: Non-Toxic; Activity [43]: Non-Toxic; Activity [44]: Non-Toxic; Activity [45]: Non-Toxic
5 | Cc1cccc(C)c1OCC(C)N (racemic) [MEXILETINE] |  |  |  |  |  |  |  |  |  |  |  |  |  |  |  |  |  |  |  |  | ED50 [48]: 11.9 mg/kg; ED50 [49]: 1.2 mg/kg
